Reference: ChEMBL document CHEMBL5465560, “Selectivity Literature for EUbOPEN Chemogenomic Library” (2024)

Tests used:
[1] = target: Ribosomal protein S6 kinase alpha-5 (Homo sapiens) (UniProt O75582); details: at 10 µM
[2] = target: Ribosomal protein S6 kinase alpha-5 (Homo sapiens) (UniProt O75582); experiment: Selectivity interaction (KinomeScan (DiscoverX)) EUB0000045b RPS6KA5; details: at 10 µM
[3] = target: Cyclin-dependent kinase 17 (Homo sapiens) (UniProt Q00537); experiment: Selectivity interaction (KinomeScan (DiscoverX)) EUB0000695a CDK17; details: at 100 nM
[4] = target: T1, Casein kinase I isoform alpha-like (Homo sapiens) (UniProt Q8N752); experiment: Selectivity interaction (KinomeScan (DiscoverX)) EUB0001079a CSNK1A1L; details: at 1 µM
T1 sequence (whole entry): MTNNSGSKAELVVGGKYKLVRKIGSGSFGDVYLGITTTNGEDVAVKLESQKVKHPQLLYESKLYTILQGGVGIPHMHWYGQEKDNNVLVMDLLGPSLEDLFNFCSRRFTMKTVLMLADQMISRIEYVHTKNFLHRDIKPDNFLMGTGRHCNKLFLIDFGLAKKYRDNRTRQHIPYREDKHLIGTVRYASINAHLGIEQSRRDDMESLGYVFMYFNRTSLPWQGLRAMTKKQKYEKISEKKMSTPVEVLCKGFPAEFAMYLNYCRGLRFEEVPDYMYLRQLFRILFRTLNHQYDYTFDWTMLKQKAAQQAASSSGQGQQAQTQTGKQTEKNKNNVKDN

[5] = target: Tyrosine-protein kinase JAK2 (Homo sapiens, UniProt O60674); experiment: (§1) Selectivity interaction (Kinase panel (Z-LYTE Assay)) EUB0001632a JAK2; details: at 10 µM
Tyrosine-protein kinase JAK2, sequence (O60674 whole entry): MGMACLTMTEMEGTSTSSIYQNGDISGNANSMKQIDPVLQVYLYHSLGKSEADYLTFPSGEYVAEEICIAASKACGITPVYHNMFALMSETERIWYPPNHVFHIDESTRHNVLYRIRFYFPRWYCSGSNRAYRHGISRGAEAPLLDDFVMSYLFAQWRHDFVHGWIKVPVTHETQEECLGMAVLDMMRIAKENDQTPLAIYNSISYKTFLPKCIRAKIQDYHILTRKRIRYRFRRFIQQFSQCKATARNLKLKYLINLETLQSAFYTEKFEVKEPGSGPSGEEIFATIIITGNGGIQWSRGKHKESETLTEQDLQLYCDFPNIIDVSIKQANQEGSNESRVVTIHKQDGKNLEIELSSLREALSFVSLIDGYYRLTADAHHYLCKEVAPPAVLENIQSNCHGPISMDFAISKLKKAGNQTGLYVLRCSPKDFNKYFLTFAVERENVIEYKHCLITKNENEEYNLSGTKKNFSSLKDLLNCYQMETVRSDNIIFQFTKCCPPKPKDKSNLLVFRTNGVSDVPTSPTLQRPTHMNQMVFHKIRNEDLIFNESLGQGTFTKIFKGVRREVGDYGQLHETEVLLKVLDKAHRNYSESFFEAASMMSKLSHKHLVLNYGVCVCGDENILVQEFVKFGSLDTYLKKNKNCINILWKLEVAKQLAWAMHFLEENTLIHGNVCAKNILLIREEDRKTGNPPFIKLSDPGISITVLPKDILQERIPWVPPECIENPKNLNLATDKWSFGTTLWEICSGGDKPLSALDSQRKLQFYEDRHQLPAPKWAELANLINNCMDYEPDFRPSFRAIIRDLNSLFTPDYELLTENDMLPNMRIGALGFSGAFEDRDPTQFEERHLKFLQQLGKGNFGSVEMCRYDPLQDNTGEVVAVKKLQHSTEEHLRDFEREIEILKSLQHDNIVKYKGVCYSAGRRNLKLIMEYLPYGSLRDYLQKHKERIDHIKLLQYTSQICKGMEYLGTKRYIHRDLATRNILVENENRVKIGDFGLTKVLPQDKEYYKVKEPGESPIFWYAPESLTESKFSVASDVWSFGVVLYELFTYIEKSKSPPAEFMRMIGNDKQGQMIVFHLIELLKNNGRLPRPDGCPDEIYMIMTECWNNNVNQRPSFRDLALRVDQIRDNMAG

[6] = tested on: Tyrosine-protein kinase JAK2 (Homo sapiens), O60674 [V617F]; experiment: as §1; details: at 10 µM
Tyrosine-protein kinase JAK2 (Homo sapiens), O60674 [V617F], sequence (O60674 whole entry V617F): as the sequence (O60674 whole entry) above, with V617F counted along it

[7] = target: Proto-oncogene tyrosine-protein kinase Src (Homo sapiens, UniProt P12931); details: at 10 µM
[8] = target: Vascular endothelial growth factor receptor 3 (Homo sapiens, UniProt P35916); experiment: Selectivity interaction (Upstate Kinase Profiler service (Millipore)) EUB0000056c FLT4; details: at 1 µM
Vascular endothelial growth factor receptor 3, sequence (P35916 whole entry): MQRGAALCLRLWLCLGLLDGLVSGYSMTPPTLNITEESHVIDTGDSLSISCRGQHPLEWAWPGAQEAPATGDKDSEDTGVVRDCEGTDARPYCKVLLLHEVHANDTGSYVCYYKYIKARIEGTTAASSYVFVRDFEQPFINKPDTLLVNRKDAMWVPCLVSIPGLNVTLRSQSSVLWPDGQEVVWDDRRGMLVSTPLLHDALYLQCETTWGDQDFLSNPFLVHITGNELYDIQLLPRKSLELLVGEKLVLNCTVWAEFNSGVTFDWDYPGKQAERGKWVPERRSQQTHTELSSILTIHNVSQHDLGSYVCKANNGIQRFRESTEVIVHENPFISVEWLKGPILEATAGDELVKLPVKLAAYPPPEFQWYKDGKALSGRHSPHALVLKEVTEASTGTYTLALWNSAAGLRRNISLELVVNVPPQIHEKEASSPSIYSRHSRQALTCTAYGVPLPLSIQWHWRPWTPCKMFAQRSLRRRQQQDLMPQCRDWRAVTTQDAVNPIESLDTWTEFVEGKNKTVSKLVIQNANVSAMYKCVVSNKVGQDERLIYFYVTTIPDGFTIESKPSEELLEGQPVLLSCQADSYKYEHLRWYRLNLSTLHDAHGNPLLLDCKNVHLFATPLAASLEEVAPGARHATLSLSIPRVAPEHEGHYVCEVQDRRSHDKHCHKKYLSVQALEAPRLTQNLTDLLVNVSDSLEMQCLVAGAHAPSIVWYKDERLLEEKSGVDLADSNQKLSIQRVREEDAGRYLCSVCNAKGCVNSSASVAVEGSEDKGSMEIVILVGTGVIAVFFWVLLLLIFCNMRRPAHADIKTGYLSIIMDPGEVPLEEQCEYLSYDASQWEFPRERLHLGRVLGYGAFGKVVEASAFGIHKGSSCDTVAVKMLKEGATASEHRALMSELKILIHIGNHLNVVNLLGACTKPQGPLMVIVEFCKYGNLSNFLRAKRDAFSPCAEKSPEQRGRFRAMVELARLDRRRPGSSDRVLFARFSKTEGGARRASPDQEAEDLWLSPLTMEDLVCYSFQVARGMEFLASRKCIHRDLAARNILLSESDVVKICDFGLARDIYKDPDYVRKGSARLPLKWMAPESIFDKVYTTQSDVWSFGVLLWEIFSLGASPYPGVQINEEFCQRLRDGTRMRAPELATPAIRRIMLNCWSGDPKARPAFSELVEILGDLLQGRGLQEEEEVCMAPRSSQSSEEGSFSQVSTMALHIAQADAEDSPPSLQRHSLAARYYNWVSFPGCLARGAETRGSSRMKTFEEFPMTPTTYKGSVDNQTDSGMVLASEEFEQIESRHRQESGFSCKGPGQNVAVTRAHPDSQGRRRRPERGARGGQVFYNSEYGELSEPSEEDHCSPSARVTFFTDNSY

[9] = target: T2, Tyrosine-protein kinase ZAP-70 (Homo sapiens) (UniProt P43403); experiment: Selectivity interaction (Kinase panel (literature)) EUB0001199aCl ZAP70; details: at 1 µM
T2 sequence (whole entry): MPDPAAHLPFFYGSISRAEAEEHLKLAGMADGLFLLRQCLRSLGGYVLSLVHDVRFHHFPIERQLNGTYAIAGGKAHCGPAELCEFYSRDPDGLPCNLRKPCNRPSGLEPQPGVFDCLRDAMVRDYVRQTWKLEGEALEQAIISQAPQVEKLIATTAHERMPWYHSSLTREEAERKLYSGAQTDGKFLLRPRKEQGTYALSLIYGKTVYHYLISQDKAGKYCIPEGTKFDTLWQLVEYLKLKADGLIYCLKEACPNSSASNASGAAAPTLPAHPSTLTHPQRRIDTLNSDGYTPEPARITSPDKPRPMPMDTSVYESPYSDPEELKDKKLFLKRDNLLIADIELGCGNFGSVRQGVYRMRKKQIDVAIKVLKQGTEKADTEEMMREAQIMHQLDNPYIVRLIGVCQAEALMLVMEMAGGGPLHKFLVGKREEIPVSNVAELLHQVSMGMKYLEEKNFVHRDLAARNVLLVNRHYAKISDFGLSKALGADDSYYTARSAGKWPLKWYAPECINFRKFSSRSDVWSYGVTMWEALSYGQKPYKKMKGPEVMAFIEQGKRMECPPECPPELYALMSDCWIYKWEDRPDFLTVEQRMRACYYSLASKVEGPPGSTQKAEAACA

[10] = target: Tyrosine-protein kinase JAK1 (Homo sapiens, UniProt P23458); experiment: Selectivity interaction (NanoBRET assay (HEK293T cells)) EUB0001558a JAK1; format: cell-based, HEK-293T
[11] = target: Ephrin type-A receptor 7 (Homo sapiens) (UniProt Q15375); experiment: Selectivity interaction (ActivX KiNativ screen (kinase selectivity in THP-1 cell lysates)) EUB0000639a EPHA7; format: subcellular; details: lysate
Ephrin type-A receptor 7 (Homo sapiens), sequence (Q15375 28-998 limits assumed): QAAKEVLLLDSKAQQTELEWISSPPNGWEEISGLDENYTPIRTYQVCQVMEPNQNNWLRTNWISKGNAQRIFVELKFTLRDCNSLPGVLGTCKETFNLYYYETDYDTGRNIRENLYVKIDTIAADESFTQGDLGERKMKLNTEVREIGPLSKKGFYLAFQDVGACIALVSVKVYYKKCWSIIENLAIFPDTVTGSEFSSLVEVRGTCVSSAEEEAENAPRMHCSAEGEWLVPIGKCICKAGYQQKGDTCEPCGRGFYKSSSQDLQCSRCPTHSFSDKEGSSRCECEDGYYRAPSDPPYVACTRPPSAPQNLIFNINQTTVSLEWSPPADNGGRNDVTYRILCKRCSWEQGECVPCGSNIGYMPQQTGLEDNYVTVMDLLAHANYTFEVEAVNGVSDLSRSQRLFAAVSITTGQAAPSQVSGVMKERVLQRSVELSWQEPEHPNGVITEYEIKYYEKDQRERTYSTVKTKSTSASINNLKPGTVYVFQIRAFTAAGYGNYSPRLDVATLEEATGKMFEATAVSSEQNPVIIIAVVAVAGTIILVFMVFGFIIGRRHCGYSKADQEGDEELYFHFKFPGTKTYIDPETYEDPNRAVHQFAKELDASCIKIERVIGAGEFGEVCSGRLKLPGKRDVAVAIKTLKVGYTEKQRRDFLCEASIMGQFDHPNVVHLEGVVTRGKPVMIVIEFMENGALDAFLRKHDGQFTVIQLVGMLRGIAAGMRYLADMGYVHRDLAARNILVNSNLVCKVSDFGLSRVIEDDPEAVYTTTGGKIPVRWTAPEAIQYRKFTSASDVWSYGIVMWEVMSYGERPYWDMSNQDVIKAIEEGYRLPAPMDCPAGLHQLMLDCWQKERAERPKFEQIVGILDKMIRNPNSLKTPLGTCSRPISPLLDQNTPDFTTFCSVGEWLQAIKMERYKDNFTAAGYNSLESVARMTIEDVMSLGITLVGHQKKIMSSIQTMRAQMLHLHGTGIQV

[12] = target: Interleukin-1 receptor-associated kinase 1 (Homo sapiens) (UniProt P51617); experiment: Selectivity interaction (ActivX KiNativ screen (kinase selectivity in THP-1 cell lysates)) EUB0000639a IRAK1; format: subcellular; details: lysate
Interleukin-1 receptor-associated kinase 1 (Homo sapiens), sequence (P51617 whole entry, looked up): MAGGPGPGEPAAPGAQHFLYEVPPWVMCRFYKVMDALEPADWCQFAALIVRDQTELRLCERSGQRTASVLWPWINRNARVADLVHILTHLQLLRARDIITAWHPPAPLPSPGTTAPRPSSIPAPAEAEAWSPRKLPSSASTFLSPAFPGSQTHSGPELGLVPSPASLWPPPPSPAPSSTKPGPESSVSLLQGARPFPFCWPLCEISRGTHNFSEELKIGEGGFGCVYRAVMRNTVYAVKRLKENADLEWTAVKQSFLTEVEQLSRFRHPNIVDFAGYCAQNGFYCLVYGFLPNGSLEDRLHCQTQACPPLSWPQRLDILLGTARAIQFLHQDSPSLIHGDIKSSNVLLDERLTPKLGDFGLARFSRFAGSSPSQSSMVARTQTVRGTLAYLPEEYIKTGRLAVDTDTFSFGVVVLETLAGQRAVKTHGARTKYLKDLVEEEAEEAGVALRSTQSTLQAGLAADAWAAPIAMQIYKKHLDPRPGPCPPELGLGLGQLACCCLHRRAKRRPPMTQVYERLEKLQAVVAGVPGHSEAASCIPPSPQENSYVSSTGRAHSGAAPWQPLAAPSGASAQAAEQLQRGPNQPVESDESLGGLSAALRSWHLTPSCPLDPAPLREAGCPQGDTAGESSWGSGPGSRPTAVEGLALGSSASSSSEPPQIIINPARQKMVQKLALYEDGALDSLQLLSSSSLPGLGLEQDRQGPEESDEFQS

[13] = target: T3, SNF-related serine/threonine-protein kinase (Homo sapiens) (UniProt Q9NRH2); experiment: Selectivity interaction (KinomeScan (DiscoverX)) EUB0000655a SNRK; details: at 10 µM
T3 sequence (whole entry): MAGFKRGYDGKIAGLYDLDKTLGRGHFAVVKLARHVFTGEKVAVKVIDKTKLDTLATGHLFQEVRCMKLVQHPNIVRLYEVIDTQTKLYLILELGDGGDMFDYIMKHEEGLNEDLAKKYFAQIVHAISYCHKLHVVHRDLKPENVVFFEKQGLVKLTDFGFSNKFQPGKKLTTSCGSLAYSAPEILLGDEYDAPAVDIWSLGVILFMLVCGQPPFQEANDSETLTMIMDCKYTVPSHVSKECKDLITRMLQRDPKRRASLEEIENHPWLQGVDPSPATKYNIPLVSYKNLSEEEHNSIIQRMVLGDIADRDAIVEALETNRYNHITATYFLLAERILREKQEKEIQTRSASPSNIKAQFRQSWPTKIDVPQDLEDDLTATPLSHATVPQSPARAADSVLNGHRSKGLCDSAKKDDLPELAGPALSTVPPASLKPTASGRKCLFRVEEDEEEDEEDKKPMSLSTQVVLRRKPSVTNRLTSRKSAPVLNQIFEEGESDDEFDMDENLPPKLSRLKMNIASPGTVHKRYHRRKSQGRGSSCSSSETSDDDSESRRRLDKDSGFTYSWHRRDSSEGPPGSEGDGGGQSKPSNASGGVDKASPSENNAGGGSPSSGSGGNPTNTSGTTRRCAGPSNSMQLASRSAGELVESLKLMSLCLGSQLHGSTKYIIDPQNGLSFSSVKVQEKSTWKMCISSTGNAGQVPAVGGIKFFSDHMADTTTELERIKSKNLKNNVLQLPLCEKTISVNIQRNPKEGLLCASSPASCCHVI

Ribosomal protein S6 kinase alpha-5 (Homo sapiens), sequence (O75582 whole entry, looked up): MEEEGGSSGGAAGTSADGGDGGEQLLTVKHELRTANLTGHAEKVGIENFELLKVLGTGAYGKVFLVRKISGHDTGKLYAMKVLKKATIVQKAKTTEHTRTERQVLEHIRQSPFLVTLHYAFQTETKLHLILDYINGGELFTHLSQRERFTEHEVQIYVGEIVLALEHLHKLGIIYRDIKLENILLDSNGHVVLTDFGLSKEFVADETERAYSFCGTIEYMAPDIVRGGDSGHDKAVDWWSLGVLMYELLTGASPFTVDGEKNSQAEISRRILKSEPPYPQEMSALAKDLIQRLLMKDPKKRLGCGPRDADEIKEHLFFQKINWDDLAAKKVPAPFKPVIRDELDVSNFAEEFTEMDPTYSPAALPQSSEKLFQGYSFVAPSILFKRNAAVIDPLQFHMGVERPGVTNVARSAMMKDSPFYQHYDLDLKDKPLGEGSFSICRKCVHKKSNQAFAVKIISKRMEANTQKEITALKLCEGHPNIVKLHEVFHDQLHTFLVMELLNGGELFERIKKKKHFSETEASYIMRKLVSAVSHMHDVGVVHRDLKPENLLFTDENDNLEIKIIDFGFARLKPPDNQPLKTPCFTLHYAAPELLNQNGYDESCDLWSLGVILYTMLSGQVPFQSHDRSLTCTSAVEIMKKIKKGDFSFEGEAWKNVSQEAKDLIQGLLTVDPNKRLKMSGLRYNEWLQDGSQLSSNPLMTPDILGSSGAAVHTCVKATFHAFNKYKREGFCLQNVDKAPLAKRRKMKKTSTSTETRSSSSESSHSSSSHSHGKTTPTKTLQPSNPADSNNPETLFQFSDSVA

## COCC(=O)NC/C=C/c1ccc2ncnc(Nc3ccc(Oc4ccc(C)nc4)c(C)c3)c2c1 [CP-724714]
[1]
  % of control: 99%

## C=CC(=O)Nc1cc(-n2c(=O)ccc3cnc4ccc(-c5ccc(NS(C)(=O)=O)cc5)cc4c32)ccc1C
[2]
  % of control: 80%

## Cc1cc(F)c(C(=O)Nc2cccc(-c3nncn3C(C)C)n2)cc1-n1cnc(C2CC2)c1
[3]
  % of control: 100%

## Nc1cnc(N2CCc3cc(S(=O)(=O)Nc4c(F)cc(Cl)cc4F)cc(N4CCCC4=O)c32)nc1 [TP-020n]
[4]
  % of control: 100%

## Cn1cc(-n2cnc3c(NCc4nc5cc(Cl)c(Cl)cc5[nH]4)nc(N4CCOCC4)nc32)cn1
[5]
  % of control: -3.18%
[6]
  % of control: -2.15%

## Cc1cc([C@@H](C)Nc2ccccc2C(=O)O)c2nc(N3CCOCC3)cc(=O)n2c1 [AZD-6482]
[7]
  % of control: 100%

## Cc1ccc(-c2ccc3c(ccc4sc5c(c43)NC[C@@H](C)NC5=O)n2)cn1
[8]
  % of inhibition: 40%

## CN1Cc2nccc(-c3cn(C)nc3-c3ccc(F)cc3)c2C1=O
[9]
  % of inhibition: 6%

## CC(C)(O)[C@H](F)CN1Cc2cc(NC(=O)c3cnn4cccnc34)c(N3CCOCC3)cc2C1=O
[10]
  EC50: > 50 µM

## CC[C@@H]1[C@H](F)C(=O)N[C@@H]1COc1nccc2cc(C(N)=O)c(OC)cc12 [ZIMLOVISERTIB]
[11]; at 0.01 µM
  % of inhibition: -8.6%
[11]; at 0.04 µM
  % of inhibition: 21.7%
[11]; at 0.2 µM
  % of inhibition: 20.8%
[11]; at 1 µM
  % of inhibition: -6.5%
[11]; at 5 µM
  % of inhibition: 20.6%
[12]; at 0.01 µM
  % of inhibition: 2.3%
[12]; at 0.04 µM
  % of inhibition: 8.5%
[12]; at 0.2 µM
  % of inhibition: 2.2%
[12]; at 1 µM
  % of inhibition: 19.8%
[12]; at 5 µM
  % of inhibition: 60.7%

## CN(C)CCOc1ccc(-c2nc(-c3ccncc3)c(-c3ccc4c(c3)CC/C4=N\O)[nH]2)cc1
[13]
  % of control: 89%
